Key:
[1] = tested on: Mesa brand biological indicator (BI); assay: System 220 bubbler flow through elevator wire channel, biological indicator kill; assay type: cell-based
From the text: In this embodiment, vapor system 220 was substantially modified to allow PAA vapor to flow from the bubbler 231 into an endoscope's elevator wire channel 270. To generate flow, a duodenoscope was placed in a poly tray (no terminal packaging was used) and the elevator wire channel of the endoscope was connected to the flow path. The vacuum chamber 240 was evacuated to 20 torr (±5 torr) so as to create enough pressure differential to flow PAA vapor 232A without any additional mechanical assistance, such as a pump. The flow rate was estimated to be about 150 ml per minute. Potential system leaks were assessed by closing the On/Off valve of the bubbler, isolating the chamber in manual control mode, and holding for 5 minutes. Chamber leak rate was determined to be less than 0.5 torr per five minutes. Depending on the application and the size of the bubbler vessel, PAA flow rate was to be controlled via the needle valve. In this illustrated embodiment, needle valve 252 was in its maximum flow position during all experiments, indicating needle valve 252 was not needed. Flow of PAA vapor to the distal tip of the scope was assured by affixing a PAA chemical indicator (CI) 280. Additional CIs were placed throughout the chamber to monitor for the presence of residual PAA presence, but these were optional and not critical to the operation of system 220. […]

[2] = tested on: Geobacillus stearothermophilus spores; assay: Heated bubbler Cycle 253, inoculated Olympus TJF-160 duodenoscope without hookups; assay type: cell-based; conditions: Cycle 253: contact time 1200, 3 inj, 6-logs of spores, no hookups
From the text: (§1) An assortment of process challenge devices (PCDs) were procured as a rough gauge to see what modes of sterilization are possible with the current bubbler 430 setup. These devices included simple Tyvek bags containing BIs, a syringe based PCD which contained a BI, a HF2000 Hemofilter cut to allow a BI to be inserted into the fiber mesh, and an artificial bone matrix provided by the REVOX team. Additionally, an Olympus TJF160 duodenoscope was inoculated with 6-log of bacteria on the exterior surface and within the scope lumens and was exposed to a Bubbler cycle with no hookups. This scope was used to assess penetration of sterilant down fine lumens.
The difference between heated and non-heated bubbler systems is the resulting humidity present in the chamber during the sterilization cycles. The humidity level on Cycle 250, as an example, exceeded 100% relative humidity. Maximum humidity levels were recorded by visual observation. The importance of humidity was again shown in Cycle 251 where humidity levels never exceeded 60% while testing a rapid, multi block cycle. […] Cycle 252 was used to test the effect of a single block run with a longer period of hold. […] Cycle 253 tested the penetration of Bubbler created PAA vapor into the long lumens of an Olympus TJF-160 duodenoscope. […]

[3] = tested on: Geobacillus stearothermophilus; assay: Colonoscope sterilization in 60 liter stainless steel chamber; assay type: cell-based; conditions: colonoscope CFQ-160 L, bubbler 4 L/min, circulation approximately 12 L/min, 60 minutes, 6-7 log inoculum
Description: A 60 liter stainless steel chamber was used to determine the effect of chamber size on the efficacy of the bubbler system when the chamber size and material were changed. The flow rate used was 4 L/min for a bubbler and approximately 12 L/min for circulation and the sterilization time was for 60 minutes. Twenty-two inoculated surfaces were studied with the colonoscope (CFQ-160 L). Each scope was inoculated on both the exterior and interior of the lumens with Geobacillus stearothermophilus suspended in serum or saline solution at a target concentration of microorganisms of 6-7 log for each run.

[4] = limit that the residual is compared with; cited from earlier work
[5] = tested on: Geobacillus stearothermophilus; assay: Sterilization of inoculated flexible endoscopes with PAA vapor from a one liter glass bubbler; assay type: cell-based; conditions: 6-7 log inoculum, chamber at room temperature
From the text: A one liter glass bubbler as the vapor system was used to test three different flexible endoscopes to determine the efficacy of the system against microorganisms as a function of size and architecture of endoscope.
The three endoscope types were chosen to meet the three primary conditions of flexible endoscopes: • Long endoscope: XSIF-100 • Complex channel system scope: CFQ-160L • Basic/small scope: BF-P40 and BF-P30
Each scope was inoculated on both the exterior and interior of the lumens with Geobacillus stearothermophilus suspended in serum or saline solution at a target concentration of microorganisms of 6-7 log for each run. The scope was then sealed inside a double Tyvek bag with a hookup adaptor. Each flexible endoscope was evaluated for a total of 22 inoculated surfaces to achieve a greater than 95% confidence level.
The test conditions for each scope are described below: • For CF-Q160L endoscope: • a. Bubbler flow rate: 4000 mL/min • b. Circulation Flow Rate: 12000 mL/min • c. Contact Time: 60 min
For XSIF-100 endoscope: • a. Bubbler flow rate: […] • b. Circulation Flow Rate: 11000 mL/min • c. Contact Time: 15 min and 30 min
For BF-P40 and BF-P30 endoscopes: • a. Bubbler flow rate: 4000 mL/min • b. Circulation Flow Rate: 11000 mL/min • c. Contact Time: 30 min
The chamber for all the runs was at room temperature.

[6] = tested on: biological indicators (BIs); assay: Heated 90 cm bubbler runs, biological indicators in beakers, Tyvek and process challenge devices; assay type: cell-based
Description: In this example embodiment of bubbler 430 and system 420, the Bubbler System was modified to accept a 50 mm outside diameter by 90 cm long glass tube (5 mm wall thickness) attached to a 417-liter REVOX system. During all experiments, 250 mL of REVOX PA liquid was measured by graduated cylinder and poured into the 90 cm Bubbler. The Bubbler System was connected to the 417-liter REVOX sterilization chamber referred to as an improved bubbler vessel configuration. Air was drawn into bubbler 430 using only the force of the vacuum within sterilization chamber. A simple on-off valve was used to control the flow of air through the bubbler, allowing for “blocks” to be created in a similar manner to a normal REVOX cycle. In several cases a flow meter and/or infrared vapor detector was used to monitor the output of the Bubbler. In all cases, unused functions of the modified Revox Sterilization chamber/system were turned off (e.g. Dehumidification Hold was always set to 0) or were disabled (e.g. scope flow valve power was physically unplugged).
as §1
The difference between heated and non-heated bubbler systems is the resulting humidity present in the chamber during the sterilization cycles. The humidity level on Cycle 250, as an example, exceeded 100% relative humidity. Maximum humidity levels were recorded by visual observation. The importance of humidity was again shown in Cycle 251 where humidity levels never exceeded 60% while testing a rapid, multi block cycle. […] Cycle 252 was used to test the effect of a single block run with a longer period of hold. […] Cycle 253 tested the penetration of Bubbler created PAA vapor into the long lumens of an Olympus TJF-160 duodenoscope. The scope surface, elevator wire channel, air/water channel, and suction biopsy channel were each inoculated with 6-logs of Geobacillus stearothermophilus spores. No hookups were used to pass PAA vapor into the lumens.
Cycle 254 tested a single 15-minute contact time on BIs in the chamber and within a Tyvek pouch. With pump down and ventilation, the total run time was 22 minutes. […] Additionally, between 5 and 10 additional minutes could be cut out of the cycle to achieve the same results. This is based on the rate at which the chemical indicators bleach out within the chamber, which tends to happen less than 5 minutes after PAA exposure begins. Within this cycle as well, two different types of Cantel Medical PAA chemical indicators were used. No appreciable difference was observed between the two varieties of CIs. Cycles 255 and 256 provide insight into the utility of the large scale Bubbler technology. […] The results of the Hemofilter can be explained by the complexity of filter membrane and its massive surface area. More “blocks” or injections of PAA vapor are likely needed to saturate the filter membrane with PAA vapor. The bone matrix, however, is readily porous and should be easily sterilized under these conditions. […] It is hypothesized that the metal is causing a breakdown of the PAA vapor as it passes through the bone matrix.

[7] = Evacuation of sterilant after sterilization: PAA in chamber and residuals on scope; conditions: after 30 minute ventilation
From the text: To evacuate the sterilant out after the sterilization process, the experiment utilized three additional parts to the system: • 1. Circulating fan inside the chamber lid to generate turbulence to promote the evacuation process. • 2. Air pump at the outlet vent to help remove the sterilant out of the system. • 3. Medical air inlet to dilute the concentration of PAA for faster evacuating process.
The process included a flow of medical air in at 15 L/min (flow through both chamber and lumen of scope) and a flow of air out of the chamber (generated by the air pump) and a circulation flow inside the chamber (generated by the fan). The equivalent of flow through the chamber allowed the pressure inside the chamber to be closer to atmospheric pressure to reduce scope damage and allow easier design of the chamber.

[8] = Cycle 254: contact time 900 (15-minute), 1 inj, inj 5 torr
[9] = Cycle 255: contact time 1200, 3 inj, inj 5 torr
[10] = Cycle 256: contact time 3600, 2 inj, inj 1 torr

Compound: CC(=O)OO [PAA, peracetic acid]
- BI Results ([1]; contact time 600 seconds (Manual 1, Manual 2), chamber 20 torr, BI in vessel along flow path): alive
- biological indicators ([1]; scope flow time 30 minutes or greater): dead
- Scope Exterior [2]: full kill
- Scope Lumens [2]: 1 log reduction
- survivors on 22 inoculated surfaces, scope and biological indicators [3]: no survivors
- worst case residual toxicity [4]: 7050 mg of PAA per total device
- Result: survivors on 22 inoculated surfaces ([5]; Bronchoscope BF-P40 and BF-P30, bubbler 4000 mL/min, circulation 11000 mL/min, contact 30 min): All 22 inoculated surfaces have no
- Result: survivors on 22 inoculated surfaces ([5]; Colonoscope CFQ-160L, bubbler 4000 mL/min, circulation 12000 mL/min, contact 60 min): All 22 inoculated surfaces have no
- Result: survivors on 22 inoculated surfaces ([5]; Enteroscope XSIF-100, bubbler 4000 mL, circulation 11000 mL/min, contact 15 min and 30 min): All 22 inoculated surfaces have no
- BI Results: BIs in Beakers (negative = kill) ([6]; Cycle 250: contact time 1200, 3 inj, inj 5 torr, post inj 500 torr, humidity exceeded 100%): complete kill
- BI Results: BIs in Beakers ([6]; Cycle 251: contact time 60, 20 inj, inj 5 torr, humidity never exceeded 60%): No kill
- BI Results: BIs in Beakers ([6]; Cycle 252: contact time 1800, 1 inj, inj 5 torr, humidity exceeded 100%): Kill was achieved
- BI Results: BIs in Beakers [6, 8]: sterilized
- BI Results: BIs in Tyvek [6, 8]: sterilized
- BI Results: BIs in Syringe PCD [6, 9]: able to kill
- BI Results: Bone Marrow BI [6, 9]: not able to kill
- BI Results: Hemofilter PCD BI [6, 9]: not able to kill
- BI Results: Bone Marrow PCD [6, 10]: not able to kill
- BI Results: Hemofilter PCD [6, 10]: not able to kill
- BI Results: Syringe PCD [6, 10]: able to kill
- residuals on the scope [7]: 30 mg of PAA

— patent US20200375691A1, “PERACETIC ACID VAPOR STERILIZATION SYSTEM” (Medivators Inc., priority 2018, published 2020)
